From PubChem BioAssay (NCI)
Values joined by “and” are separate entries in the source; they are usually repeats but may differ in a detail not shown here. Identical values can stand only once.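 The compound was tested at five concentrations on cells cultured in 96-well plates, with a 48-hour exposure period. At the GI50, growth is halved. At the TGI there is no net growth.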

Legend:
Assay in all cases: NCI tumour cell line growth inhibition, 48 h
786-0 renal = tested on: 786-0 renal
K-562 leukemia = tested on: K-562 leukemia
TK-10 renal = tested on: TK-10 renal
U251 CNS = tested on: U251 CNS
NCI-H522 lung = tested on: NCI-H522 lung
A549 NSCLC = tested on: A549 NSCLC
UO-31 renal = tested on: UO-31 renal
HCT-15 colon = tested on: HCT-15 colon
HCT-116 colon = tested on: HCT-116 colon
SK-MEL-28 melanoma = tested on: SK-MEL-28 melanoma
IGROV1 ovarian = tested on: IGROV1 ovarian
A498 renal = tested on: A498 renal
OVCAR-5 ovarian = tested on: OVCAR-5 ovarian
SF-539 CNS = tested on: SF-539 CNS
MCF7 breast = tested on: MCF7 breast
NCI-H460 lung = tested on: NCI-H460 lung
EKVX NSCLC = tested on: EKVX NSCLC
MDA-MB-435 = tested on: MDA-MB-435
T-47D breast = tested on: T-47D breast
UACC-62 melanoma = tested on: UACC-62 melanoma
CAKI-1 renal = tested on: CAKI-1 renal
SK-MEL-5 melanoma = tested on: SK-MEL-5 melanoma
M14 melanoma = tested on: M14 melanoma
HOP-92 NSCLC = tested on: HOP-92 NSCLC
HT29 colon = tested on: HT29 colon
HCC-2998 colon = tested on: HCC-2998 colon
OVCAR-3 ovarian = tested on: OVCAR-3 ovarian
MDA-MB-231 breast = tested on: MDA-MB-231 breast
SK-MEL-2 melanoma = tested on: SK-MEL-2 melanoma
SN12C renal = tested on: SN12C renal
OVCAR-4 ovarian = tested on: OVCAR-4 ovarian
HOP-62 NSCLC = tested on: HOP-62 NSCLC
HS 578T breast = tested on: HS 578T breast
BT-549 breast = tested on: BT-549 breast
COLO 205 colon = tested on: COLO 205 colon
SW-620 colon = tested on: SW-620 colon
ACHN renal = tested on: ACHN renal
RPMI-8226 leukemia = tested on: RPMI-8226 leukemia
HL-60(TB) leukemia = tested on: HL-60(TB) leukemia
PC-3 prostate = tested on: PC-3 prostate
SNB-75 CNS = tested on: SNB-75 CNS
MOLT-4 leukemia = tested on: MOLT-4 leukemia
MALME-3M melanoma = tested on: MALME-3M melanoma
NCI-H226 lung = tested on: NCI-H226 lung
SK-OV-3 ovarian = tested on: SK-OV-3 ovarian
SF-295 CNS = tested on: SF-295 CNS
RXF 393 renal = tested on: RXF 393 renal
OVCAR-8 ovarian = tested on: OVCAR-8 ovarian
SF-268 CNS = tested on: SF-268 CNS
UACC-257 melanoma = tested on: UACC-257 melanoma
NCI-H23 lung = tested on: NCI-H23 lung
DU-145 prostate = tested on: DU-145 prostate
KM12 colon = tested on: KM12 colon
LOX IMVI melanoma = tested on: LOX IMVI melanoma
NCI/ADR-RES ovarian = tested on: NCI/ADR-RES ovarian
SNB-19 CNS = tested on: SNB-19 CNS

`CC[n+]1c(/C=C/c2ccc(N3CCCC3)cc2)cccc1/C=C/c1ccc(N2CCCC2)cc1` gave a GI50 (786-0 renal) of 247 nM, a TGI (786-0 renal) of 1200 nM and a TGI (K-562 leukemia) greater than 100000 nM. It also gave a GI50 (TK-10 renal) of 359 nM, a TGI (TK-10 renal) of 2380 nM and a GI50 (U251 CNS) of 202 nM. It also gave a TGI (U251 CNS) of 1040 nM, a GI50 (NCI-H522 lung) of 239 nM and a TGI (NCI-H522 lung) of 2080 nM. For the same molecule, the GI50 (A549 NSCLC) was 296 nM and 260 nM, the TGI (A549 NSCLC) was 1650 nM and 919 nM and the GI50 (UO-31 renal) was 376 nM. For the same molecule, the TGI (UO-31 renal) was 1600 nM, the GI50 (HCT-15 colon) was 332 nM and the TGI (HCT-15 colon) was 1230 nM. For the same molecule, the GI50 (HCT-116 colon) was 83.8 nM, the TGI (HCT-116 colon) was 1280 nM and the GI50 (SK-MEL-28 melanoma) was 194 nM and 169 nM. For the same molecule, the TGI (SK-MEL-28 melanoma) was 374 nM and 321 nM, the GI50 (IGROV1 ovarian) was 532 nM and the TGI (IGROV1 ovarian) was 2400 nM. For the same molecule, the GI50 (A498 renal) was 344 nM and 239 nM, the TGI (A498 renal) was 1150 nM and 828 nM and the GI50 (OVCAR-5 ovarian) was 476 nM. For the same molecule, the TGI (OVCAR-5 ovarian) was 1480 nM, the GI50 (SF-539 CNS) was 274 nM and the TGI (SF-539 CNS) was 1440 nM. The GI50 (MCF7 breast) was 213 nM, the TGI (MCF7 breast) was 1350 nM and the GI50 (NCI-H460 lung) was 293 nM. The TGI (NCI-H460 lung) was 1150 nM, the GI50 (EKVX NSCLC) was 83.2 nM and the TGI (EKVX NSCLC) was 2080 nM. The GI50 (MDA-MB-435) was 343 nM, the TGI (MDA-MB-435) was 2340 nM and the GI50 (T-47D breast) was 33.2 nM. For the same molecule, the TGI (T-47D breast) was 931 nM, the GI50 (UACC-62 melanoma) was 356 nM and 387 nM and the TGI (UACC-62 melanoma) was 1700 nM and 1670 nM. It also gave a GI50 (CAKI-1 renal) of 145 nM, a TGI (CAKI-1 renal) of 1360 nM and a GI50 (SK-MEL-5 melanoma) of 116 nM. The TGI (SK-MEL-5 melanoma) was 274 nM, the GI50 (M14 melanoma) was 345 nM and the TGI (M14 melanoma) was 1850 nM. It also gave a GI50 (HOP-92 NSCLC) of 342 nM, a TGI (HOP-92 NSCLC) of 1410 nM and a GI50 (HT29 colon) of 115 nM. For the same molecule, the TGI (HT29 colon) was 375 nM, the GI50 (HCC-2998 colon) was 181 nM and the TGI (HCC-2998 colon) was 338 nM. The GI50 (OVCAR-3 ovarian) was 255 nM, the TGI (OVCAR-3 ovarian) was 811 nM and the GI50 (MDA-MB-231 breast) was 264 nM and 268 nM. The TGI (MDA-MB-231 breast) was 1290 nM and 1110 nM, the GI50 (SK-MEL-2 melanoma) was 560 nM and the TGI (SK-MEL-2 melanoma) was 2380 nM. The GI50 (SN12C renal) was 217 nM and 271 nM, the TGI (SN12C renal) was 1140 nM and 1060 nM and the GI50 (OVCAR-4 ovarian) was 38.6 nM. The TGI (OVCAR-4 ovarian) was 1290 nM, the GI50 (HOP-62 NSCLC) was 414 nM and the TGI (HOP-62 NSCLC) was 1460 nM. For the same molecule, the GI50 (HS 578T breast) was 273 nM, the TGI (HS 578T breast) was 1460 nM and the GI50 (BT-549 breast) was 103 nM. The TGI (BT-549 breast) was 1760 nM, the GI50 (COLO 205 colon) was 164 nM and the TGI (COLO 205 colon) was 341 nM. The GI50 (SW-620 colon) was 287 nM and 233 nM, the TGI (SW-620 colon) was 1110 nM and 1030 nM and the GI50 (ACHN renal) was 180 nM and 240 nM. For the same molecule, the TGI (ACHN renal) was 915 nM and 1140 nM, the GI50 (RPMI-8226 leukemia) was 7.2 nM and 14.9 nM and the TGI (RPMI-8226 leukemia) was 131 nM and 261 nM. The GI50 (HL-60(TB) leukemia) was 49 nM and 391 nM, the GI50 (PC-3 prostate) was 194 nM and the TGI (PC-3 prostate) was 1230 nM. For the same molecule, the GI50 (SNB-75 CNS) was 160 nM, the TGI (SNB-75 CNS) was 880 nM and the GI50 (MOLT-4 leukemia) was 128 nM and 354 nM. The GI50 (MALME-3M melanoma) was 293 nM, the TGI (MALME-3M melanoma) was 2130 nM and the GI50 (NCI-H226 lung) was 146 nM. The TGI (NCI-H226 lung) was 1490 nM, the GI50 (SK-OV-3 ovarian) was 228 nM and the TGI (SK-OV-3 ovarian) was 897 nM. For the same molecule, the GI50 (SF-295 CNS) was 263 nM, the TGI (SF-295 CNS) was 1900 nM and the GI50 (RXF 393 renal) was 207 nM. For the same molecule, the TGI (RXF 393 renal) was 1510 nM, the GI50 (OVCAR-8 ovarian) was 248 nM and 124 nM and the TGI (OVCAR-8 ovarian) was 1610 nM and 953 nM. It also gave a GI50 (SF-268 CNS) of 449 nM, a TGI (SF-268 CNS) of 1580 nM and a GI50 (UACC-257 melanoma) of 190 nM. The TGI (UACC-257 melanoma) was 773 nM, the GI50 (NCI-H23 lung) was 74.3 nM and 87.6 nM and the TGI (NCI-H23 lung) was 982 nM and 1410 nM. The GI50 (DU-145 prostate) was 312 nM and 240 nM, the TGI (DU-145 prostate) was 1190 nM and 1220 nM and the GI50 (KM12 colon) was 116 nM. For the same molecule, the TGI (KM12 colon) was 238 nM, the GI50 (LOX IMVI melanoma) was 220 nM and 145 nM and the TGI (LOX IMVI melanoma) was 1620 nM and 1450 nM. The GI50 (NCI/ADR-RES ovarian) was 466 nM, the TGI (NCI/ADR-RES ovarian) was 1950 nM and the GI50 (SNB-19 CNS) was 310 nM. It also gave a TGI (SNB-19 CNS) of 1550 nM.
